Entries after “also recorded” stand apart in the source; their conditions may differ.
Key:
[1] = system: STZ-induced DR in the Brown Norway rat; experiment: SD-OCT retinal thickness in STZ-induced diabetic retinopathy; assay type: in vivo; conditions: week 9 after STZ
Method: (§1) Diabetes was induced in the Brown Norway rats (aged 9-10 weeks) by a single dose of streptozotocin (STZ; 65 mg/kg. Sigma) in 10 mM sodium citrate buffer, pH 4.5. After the STZ injection, rats were placed in their cages with ad libitum food and 10% (w/v) sucrose solution in tap water for 48 h. The next morning, 5% glucose (1 ml) was injected intraperitoneally or subcutaneously to all induced rats. Four days after the first STZ injection, the success of the induction was monitored by measuring the blood glucose levels from the saphenous vein. The induction of diabetes was considered successful when the blood glucose values measured by the rapidmeter were equal or higher than 16 mmol/l (288 mg/dl). Animals that were not diabetic based on this criterion 96 h after the first STZ injection received a second STZ injection.
(§2) The selected rats were monitored for blood glucose levels and animal health for 6 weeks, and then treated with weekly intravitreal (IVT) injections of vehicle or test compounds for three weeks for a total of 3× IVT eye injections per eye per animal.
(§3) For IVT treatment administration, the animals were anesthetized animals, placed under a stereoscope (Leica Microsystems), and a drop of iodine was applied on the cornea and allowed to spread evenly (Minims Povidone lodine 5%, Bausch & Lomb). A small incision in the […] exposing the vitreous chamber was performed using a 30 G needle near the limbus. A microsyringe with a 33G needle (Hamilton Bonaduz AG, Bonaduz) attached was used to inject the compounds into the intravitreal space. The test solution was injected into the intravitreal space for 10 s, the needle was kept in place for additional 30 s before being removed to avoid the reflux of the compound. Chloramphenicol ointment was applied after the injection (Oftan Chlora, Santen Oy). The different treatments were administered three times by bilateral intravitreal administration of a volume of 5 μl at weeks six, seven, and eight after STZ induction.
Anesthetized rats were imaged with SD-OCT (Envisu R2200. Bioptigen Inc./Leica Microsystems) retinal scan at week nine as shown in FIG. 5C. The scanned area covers a 2.4×2.4 mm^2 of the retina centred around the optic nerve. Each scan is composed of 100 B Scans each one composed of 1000 A Scans. SD-OCT was performed on both eyes at week nine after DR induction prior to sacrifice and sampling.
The retinal thickness at week nine was analyzed by a convolutional neural network based on U-net architecture using transfer learning approach. The resulting segmentation masks were used to measure the layer thickness in each pixel-width column, i.e. a-scan, resulting in 1000 measuring points for each layer per one b-scan. Only measuring points that passed the automatic quality control criteria set were used in the calculations. The thickness results were presented as SD-OCT measurements of the inner retina, including the nerve ganglion cell layer, inner plexiform and inner nuclear layers; and the outer retina, including the outer plexiform layer, outer nuclear layer, inner and outer segment, and RPE/choroid. […] See FIGS. 5, 7 and 8 for the results of SD-OCT.
SD-OCT scans were taken at week nine prior to sampling. The retinal scans were segmented, and the thickness was analyzed by a convolutional neural network algorithm.
Outer retinal thickness was quantified from SD-OCT images from 24 locations to generate a mean thickness of outer retinal thickness. Outliers were removed using the GROUT method (Q=1%), leading to the removal of a total of 5 outliers (naïve: 0, STZ+Vehicle: 1; STZ+AF564: 1; STZ+Danegaptide: 1; STZ+AF564+Danegaptide: 2).
SD-OCT scans were taken at week nine prior to sampling. Retinal scans were segmented and the thickness was analyzed by a convolutional neural network algorithm. Inner retinal thickness was analyzed by region (FIG. 8).

kidney epithelial cells = conditions: Squires et al., 2021; cited from earlier work
Brown Norway rats = experiment: Tolerability, macroscopic ophthalmic examinations after IVT injections; assay type: in vivo; conditions: bilateral IVT 5 μl, three weekly injections
Method: as §3
STZ-induced cataracts are common in this model and developed moderate severity by the end of the study (FIG. 4). All test articles were well-tolerated, and no signs of ocular toxicity were identified by macroscopic ophthalmic examinations. Test articles exerted no differential effects on cataract development (FIG. 4).

[2] = system: Human retinal pigment epithelial cells (ARPE-19); experiment: Tight junction organization rate (TiJOR), anti-ZO-1 immunocytochemistry in stressed ARPE-19 monolayers; assay type: cell-based; conditions: danegaptide 100 nM, 24 h pre-treatment, then 48 h 30 mM glucose + sublethal tBHP; n=13-16
Method: For immunocytochemistry, ARPE-19 cells were grown to confluency in chamber slides for 72 h. Cells were then be pre-treated with Danegaptide (DGP; 100 nM) or vehicle control for 24 h. Subsequently, cells were challenged with a combination of sublethal oxidative stress (250 μM tert-butyl hydroperoxide; Millipore Sigma, St. Louis, MO) and hyperglycemia (30 mM glucose; Millipore Sigma, St. Louis, MO) for 48 h, in the continued presence of 100 nM DGP or vehicle.
Cells were labelled with anti-ZO-1 antibody (mouse anti-human 70-1, […], cat #339100, Invitrogen, Thermo Fisher Scientific, Carlsbad, CA) in antibody solution (3% normal goat serum, 1% bovine serum albumin, 0.5% Triton X-100, 0.05% sodium azide in 0.1 M Phosphate buffer pH 7.4) for 2 h at room temperature. […]
The tight junction organization rate (TiJOR) was calculated from confocal images, as described previously (Terryn et al., 2013). […]
Tight junction organization was assessed by immunocytochemistry using anti-zonula occludens 1 (ZO-1) immunostaining (bottom images of FIG. 2; that is, FIG. 2B), a major component of Tight Junctions that binds the cytoplasmic domain of both the Gap Junction transmembrane protein, Cx43, and the TJ transmembrane proteins, occludin(s) and claudin(s). The Tight Junction organization index (TiJOR) was calculated according to Terryn et al., 2013 and measures the degree of TJ dependent cell-cell coupling.

[3] = system: STZ-induced DR in the Brown Norway rat; experiment: PAS staining of trypsin-digested retinal flat mounts: pericytes, pericyte ghosts, acellular capillaries; assay type: in vivo; conditions: week 9 after STZ
Method: as §1, §2
For IVT treatment administration, the animals were anesthetized animals, placed under a stereoscope (Leica Microsystems), and a drop of iodine was applied on the cornea and allowed to spread evenly (Minims Povidone lodine 5%, Bausch & Lomb). […]
Four to six individual images obtained from a central area, and from a peripheral area of the retinal vasculature were acquired using a Leica Thunder 3D Tissue Imager (Leica Microsystems). The number of acellular capillaries, the number of pericytes and the number of pericyte ghosts were manually counted by an investigator blinded to the experimental group assignment.
Vascular abnormalities and the effect of induction of DR by STZ induction were also assessed by quantification of acellular capillaries, pericytes and pericyte ghosts on trypsin-digested retinal wholemounts. For quantification, 4-15 individual images were quantified for each animal and the data from each image were included in the analysis.
Subsequently, number of pericyte ghosts was quantified.

[4] = system: STZ-induced DR in the Brown Norway rat; experiment: Evans Blue retinal extravasation (vascular leakage) in STZ-induced diabetic retinopathy; assay type: in vivo; conditions: week 9 after STZ, 3 weekly IVT injections
Method: as §1, with “Animals that were not diabetic based on this criterion 96 h after the first STZ injection received a second STZ injection.” left out
The selected rats were monitored for blood glucose levels and animal health for 6 weeks, and then treated with weekly intravitreal (IVT) injections of vehicle or test compounds for three weeks for a total of 3× IVT eye injections per eye per animal. […]
Retinas were homogenized in formamide in a 1:10 ratio (w/v) and incubated overnight at +70°. […] Absorbance (λ=620 nm) of the samples was measured using a plate reader (Cytation 3, BioTek Instruments Inc., Winooski, VT) and the concentration of Evans Blue in each sample was calculated against a standard curve of Evans Blue and normalized to tissue weight. […]

[5] = 3 weekly IVT injections, SD-OCT
[6] = 3 weekly IVT injections, average per group

## NCC(=O)N1C[C@H](NC(=O)c2ccccc2)C[C@H]1C(=O)O [Danegaptide, (2S,4R)-1-(2-aminoacetyl)-4-benzoylamino-pyrrolidine-2-carboxylic acid]
[1]; [5]
  Total retinal thickness, IN: 206 ± 1.8 μm
  Total retinal thickness, IT: 217 ± 1.6 μm
  Total retinal thickness, SN: 205 ± 1.9 μm
  Total retinal thickness, ST: 210 ± 2.6 μm
  Total retinal thickness, Whole Retina: 212 ± 2.2 μm
[1]; [6]
  Outer retinal thickness, IN (inferior-nasal): 121.17 μm
  Outer retinal thickness, IT (inferior-temporal): 123.61 μm
  Outer retinal thickness, SN (superior-nasal): 117.36 μm
  Outer retinal thickness, ST (superior-temporal): 118.14 μm
[1]; regional analysis ST, SN, IT, IN
  Effect on inner retinal thickness: No biologically relevant effects
[1]; weekly IVT injections at weeks 6, 7, 8, mean±S.E.M., STZ+Vehicle 123.8±0.9, naïve 119.8±0.5
  Outer retinal thickness (mean): 119.7±0.8 μm
Kidney epithelial cells
  ATP leakage from kidney epithelial cells: can reduce ATP leakage
Brown Norway rats
  Tolerability / ocular toxicity: well tolerated
[2]
  Protection against loss of Tight Junction organization (TiJOR): completely protected; also recorded: partial protection
[3]; One-Way ANOVA, Dunnett's test
  Effect on number of pericyte ghosts vs STZ+Vehicle: statistically significant reduction
[3]; count per image, STZ+Vehicle 22 ± 1
  Acellular capillaries (number): 20 ± 1
[3]; count per image, STZ+Vehicle 52 ± 2
  Pericytes (sum of the number of pericytes and pericyte ghosts): 49 ± 2
[4]
  Reduction of EB extravasation vs STZ+Vehicle: 68.9%
[4]; normalized to STZ+Vehicle, mean±S.E.M.
  Evans Blue (EB) extravasation, % of STZ+Vehicle: 31.1±5.3%
